Values joined by “and” are separate entries in the source; they are usually repeats but may differ in a detail not shown here. Equal values may be shown once. Where a name gives a salt, the structure may show the parent alone. Read-outs that look alike come from different tables or passages of the source.
How the values were obtained:
[1] = pH of exemplary salts with respect to concentration (% w/v); assay type: physicochemical
rats (hindpaw heat pain) = experiment: Hindpaw withdrawal latency to a thermal stimulus after injection of a caine salt; assay type: in vivo, Sprague Dawley rats; conditions: 1% by weight solution in water, 100 μl injected into hindpaw of rats, 10 minutes post-injection, compared to naïve animals, N=10 animals/group, cutoff 32 seconds
Procedure: Male Sprague Dawley® rats (200-300 g, Charles River) were housed in groups of two and were maintained in a standard 12-h light/dark cycle and testing was completed in the light portion of the cycle between 09:00-12:00. Animals were placed into the behavioural procedure room 30 min prior to testing to acclimate. When not in testing sessions, food and water were made available ad libitum. Animal testing procedures complied with the ethical guidelines and standards established by the University of Florida's Institutional Animal Care & Use Committee and with the Guide for Care and Use of Laboratory Animals (National Research Council Guide for the Care and Use of Laboratory Animals. Washington, D.C., National Academy Press; 1996.).
1% by weight solutions of 3a-3h were injected into the hindpaw of rats and withdrawal latency to a thermal stimulus was recorded 10 minutes post-injection. Response to hindpaw heat pain was determined by placing unrestrained rats on a clear glass platform under a small plastic cage and rats habituated for 5 min. A radiant heat source was aimed directly under the ventral hindpaw surface and the time to paw withdrawal was recorded. Baseline responses were obtained under naïve conditions (e.g., no injection), while post-treatment effects of caine salts 3a-3h in the respective vehicle (water) were assessed for 10 minutes following injection (100 μl). A cutoff of 32 seconds was used to prevent tissue damage.

| Compound | pH ([1]; Conc. 2% w/v) | pH ([1]; Conc. 5% w/v) | pH ([1]; Conc. 10% w/v) | pH [1] | withdrawal latency to a thermal stimulus (rats (hindpaw heat pain)) |
| --- | --- | --- | --- | --- | --- |
| CCCNC(C)C(=O)Nc1c(C)csc1C(=O)OC (stereo not shown) [Articaine hydrochloride, reference compound] | 4.78 | 4.62 | 4.22 | – | – |
| CCCNC(C)C(=O)Nc1c(C)csc1C(=O)OC.O=C1NS(=O)(=O)c2ccccc21 (stereo not shown) [Articaine saccharinate, Articaine Saccharinate] | – | – | – | 3.83 and 4.15 | significant increase in latency time |
| CC1=CC(=O)NS(=O)(=O)O1.CCCCN1CCCCC1C(=O)Nc1c(C)cccc1C (stereo not shown) [Bupivacaine acesulfamate, Bupivacaine Acesulfamate] | – | – | – | 4.25 and 5.13 and 5.38 | significant increase in latency time |
| CCCCN1CCCCC1C(=O)Nc1c(C)cccc1C (stereo not shown) [Bupivacaine hydrochloride, reference compound] | 5.22 | 4.81 | 4.23 | – | – |
| CCCCN1CCCCC1C(=O)Nc1c(C)cccc1C.O=C1NS(=O)(=O)c2ccccc21 (stereo not shown) [Bupivacaine saccharinate, Bupivacaine Saccharinate] | – | – | – | 3.84 and 3.66 and 5.19 | significant increase in latency time |
| CC1=CC(=O)NS(=O)(=O)O1.CNC[C@H](O)c1ccc(O)c(O)c1 [Epinephrine acesulfamate, Epinephrine Acesulfamate] | – | – | – | 4.01 and 4.14 and 4.34 | – |
| CNC[C@H](O)c1ccc(O)c(O)c1 [Epinephrine hydrochloride, reference compound] | 4.84 | 3.91 | 2.72 | – | – |
| CNC[C@H](O)c1ccc(O)c(O)c1.O=C1NS(=O)(=O)c2ccccc21 [Epinephrine saccharinate, Epinephrine Saccharinate] | – | – | – | 3.57 and 4.03 and 4.41 | – |
| CC1=CC(=O)NS(=O)(=O)O1.CCN(CC)CC(=O)Nc1c(C)cccc1C [Lidocaine acesulfamate] | – | – | – | 4.84 and 5.08 and 5.26 | – |
| CCN(CC)CC(=O)Nc1c(C)cccc1C [Lidocaine hydrochloride, reference compound] | 4.65 | 4.53 | 3.94 | – | – |
| CCN(CC)CC(=O)Nc1c(C)cccc1C.O=C1NS(=O)(=O)c2ccccc21 [Lidocaine saccharinate] | – | – | – | 4.31 and 4.41 and 4.51 | – |
| CC1=CC(=O)NS(=O)(=O)O1.Cc1cccc(C)c1NC(=O)C1CCCCN1C (stereo not shown) [Mepivacaine acesulfamate] | 4.91 | 4.87 | 4.00 | – | significant increase in latency time |
| Cc1cccc(C)c1NC(=O)C1CCCCN1C (stereo not shown) [Mepivacaine hydrochloride, reference compound] | 4.53 | 3.77 | 3.73 | – | – |
| Cc1cccc(C)c1NC(=O)C1CCCCN1C.O=C1NS(=O)(=O)c2ccccc21 (stereo not shown) [Mepivacaine saccharinate, Mepivacaine Saccharinate] | – | – | – | 4.06 and 4.23 | significant increase in latency time |
| CC1=CC([O-])=NS(=O)(=O)O1.[K+] [Potassium acesulfamate, potassium 6-methyl-1,2,3-oxathiazin-4-olate 2,2-dioxide, reference compound] | 5.98 | 6.33 | 5.78 | – | – |
| CC1=CC(=O)NS(=O)(=O)O1.CCCNC(C)C(=O)Nc1ccccc1C (stereo not shown) [Prilocaine acesulfamate, Prilocaine Acesulfamate] | 5.16 | 5.00 | 4.71 | – | significant increase in latency time |
| CCCNC(C)C(=O)Nc1ccccc1C (stereo not shown) [Prilocaine hydrochloride, reference compound] | 4.60 | 3.42 | 2.10 | – | – |
| CCCNC(C)C(=O)Nc1ccccc1C.O=C1NS(=O)(=O)c2ccccc21 (stereo not shown) [Prilocaine saccharinate, Prilocaine Saccharinate] | – | – | – | 4.47 and 4.96 and 5.04 | – |
| Articaine Acesulfamate | – | – | – | – | significant increase in latency time |
